Columns and labels:
Design in all cases: scale not given: the % may be the effect or the level left
[1] = biological target: Macrophage-stimulating protein receptor (Homo sapiens) (UniProt Q04912); assay: Inhibition of human RON assessed as enzyme activity at 1 uM using KKSRGDYMTMQIG as substrate preincubated for 20 mins followed by [gamma-33P]-ATP addition and measured after 120 mins by radiometric Hot-SpotSM Kinase assay relative to control
[2] = biological target: Death-associated protein kinase 2 (Homo sapiens) (UniProt Q9UIK4); assay: Inhibition of human DAPK2 assessed as enzyme activity at 1 uM using KKLNRTLSFAEPG as substrate preincubated for 20 mins followed by [gamma-33P]-ATP addition and measured after 120 mins by radiometric Hot-SpotSM Kinase assay relative to control
Sequence of Death-associated protein kinase 2 (Homo sapiens) (Q9UIK4 whole entry, looked up): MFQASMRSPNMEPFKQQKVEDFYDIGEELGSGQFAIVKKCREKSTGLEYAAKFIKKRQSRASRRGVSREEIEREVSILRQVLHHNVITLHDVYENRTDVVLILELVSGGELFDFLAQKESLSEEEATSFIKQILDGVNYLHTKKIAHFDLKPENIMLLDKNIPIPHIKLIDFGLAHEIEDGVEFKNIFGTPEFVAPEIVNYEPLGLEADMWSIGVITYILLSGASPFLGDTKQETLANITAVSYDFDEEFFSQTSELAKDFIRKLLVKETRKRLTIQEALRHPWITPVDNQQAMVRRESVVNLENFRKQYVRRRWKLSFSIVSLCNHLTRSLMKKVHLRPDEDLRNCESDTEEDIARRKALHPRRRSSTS

[3] = biological target: Maternal embryonic leucine zipper kinase (Homo sapiens) (UniProt Q14680); assay: Inhibition of human MELK assessed as enzyme activity at 1 uM using KKLNRTLSFAEPG as substrate preincubated for 20 mins followed by [gamma-33P]-ATP addition and measured after 120 mins by radiometric Hot-SpotSM Kinase assay relative to control
Sequence of Maternal embryonic leucine zipper kinase (Homo sapiens) (Q14680 whole entry, looked up): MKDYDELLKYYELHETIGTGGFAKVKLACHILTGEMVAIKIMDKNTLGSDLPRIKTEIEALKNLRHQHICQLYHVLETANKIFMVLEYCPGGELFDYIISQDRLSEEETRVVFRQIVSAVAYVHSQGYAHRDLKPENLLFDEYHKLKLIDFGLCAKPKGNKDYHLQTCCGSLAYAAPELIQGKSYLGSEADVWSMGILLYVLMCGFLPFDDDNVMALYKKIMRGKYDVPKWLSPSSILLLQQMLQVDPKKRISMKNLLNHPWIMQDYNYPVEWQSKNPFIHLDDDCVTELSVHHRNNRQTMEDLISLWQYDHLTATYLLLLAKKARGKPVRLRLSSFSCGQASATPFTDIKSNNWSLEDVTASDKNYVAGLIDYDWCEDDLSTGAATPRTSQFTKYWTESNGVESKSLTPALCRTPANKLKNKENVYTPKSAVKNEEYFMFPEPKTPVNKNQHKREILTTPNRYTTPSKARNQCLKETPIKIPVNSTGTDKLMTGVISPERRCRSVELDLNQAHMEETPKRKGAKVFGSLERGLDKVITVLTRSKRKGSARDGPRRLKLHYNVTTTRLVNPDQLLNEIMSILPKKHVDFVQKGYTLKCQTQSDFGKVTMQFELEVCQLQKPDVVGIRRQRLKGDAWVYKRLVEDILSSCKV

[4] = biological target: T1, Mitogen-activated protein kinase 13 (Homo sapiens) (UniProt O15264); assay: Inhibition of human P38d assessed as enzyme activity at 1 uM using myelin basic protein as substrate preincubated for 20 mins followed by [gamma-33P]-ATP addition and measured after 120 mins by radiometric Hot-SpotSM Kinase assay relative to control
T1 sequence (whole entry): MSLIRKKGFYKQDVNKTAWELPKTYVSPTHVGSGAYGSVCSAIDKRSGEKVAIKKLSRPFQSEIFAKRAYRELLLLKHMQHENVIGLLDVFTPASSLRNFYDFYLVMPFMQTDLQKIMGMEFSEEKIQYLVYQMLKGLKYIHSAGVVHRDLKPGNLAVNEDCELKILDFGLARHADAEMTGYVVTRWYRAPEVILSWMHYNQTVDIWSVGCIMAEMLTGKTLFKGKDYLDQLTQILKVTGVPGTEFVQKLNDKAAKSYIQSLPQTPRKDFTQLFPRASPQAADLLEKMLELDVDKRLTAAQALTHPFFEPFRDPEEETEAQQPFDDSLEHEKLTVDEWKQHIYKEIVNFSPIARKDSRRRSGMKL

[5] = biological target: T2, Tyrosine-protein kinase receptor TYRO3 (Homo sapiens) (UniProt Q06418); assay: Inhibition of human TYRO3 assessed as enzyme activity at 1 uM using poly[Glu:Tyr] (4:1) as substrate preincubated for 20 mins followed by [gamma-33P]-ATP addition and measured after 120 mins by radiometric Hot-SpotSM Kinase assay relative to control
T2 sequence (whole entry): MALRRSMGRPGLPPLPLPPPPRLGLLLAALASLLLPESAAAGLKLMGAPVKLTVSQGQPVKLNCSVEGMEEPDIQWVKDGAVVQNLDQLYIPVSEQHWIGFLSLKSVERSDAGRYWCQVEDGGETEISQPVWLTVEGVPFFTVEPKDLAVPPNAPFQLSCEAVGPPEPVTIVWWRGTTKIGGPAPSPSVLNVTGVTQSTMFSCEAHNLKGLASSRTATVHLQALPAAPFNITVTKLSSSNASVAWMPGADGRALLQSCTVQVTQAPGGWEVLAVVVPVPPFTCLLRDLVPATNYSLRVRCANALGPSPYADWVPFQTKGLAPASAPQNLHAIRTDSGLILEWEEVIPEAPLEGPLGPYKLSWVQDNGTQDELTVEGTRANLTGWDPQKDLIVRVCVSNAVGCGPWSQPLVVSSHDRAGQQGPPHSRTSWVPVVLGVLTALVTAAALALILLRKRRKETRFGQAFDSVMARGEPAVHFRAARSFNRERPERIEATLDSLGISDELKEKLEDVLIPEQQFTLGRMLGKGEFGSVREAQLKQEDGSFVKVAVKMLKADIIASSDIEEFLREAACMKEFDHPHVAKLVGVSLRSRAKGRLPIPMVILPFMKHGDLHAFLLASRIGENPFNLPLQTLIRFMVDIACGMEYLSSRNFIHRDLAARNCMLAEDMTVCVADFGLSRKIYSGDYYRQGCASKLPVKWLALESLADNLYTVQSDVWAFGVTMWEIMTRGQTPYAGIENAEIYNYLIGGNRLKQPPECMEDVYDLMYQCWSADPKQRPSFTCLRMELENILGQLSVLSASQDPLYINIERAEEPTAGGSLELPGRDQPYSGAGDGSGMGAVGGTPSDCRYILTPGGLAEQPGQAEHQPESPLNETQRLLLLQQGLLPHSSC

[6] = biological target: T3, Bone morphogenetic protein receptor type-2 (Homo sapiens) (UniProt Q13873); assay: Inhibition of human BMPR2 assessed as enzyme activity at 1 uM using myelin basic protein as substrate preincubated for 20 mins followed by [gamma-33P]-ATP addition and measured after 120 mins by radiometric Hot-SpotSM Kinase assay relative to control
T3 sequence (whole entry): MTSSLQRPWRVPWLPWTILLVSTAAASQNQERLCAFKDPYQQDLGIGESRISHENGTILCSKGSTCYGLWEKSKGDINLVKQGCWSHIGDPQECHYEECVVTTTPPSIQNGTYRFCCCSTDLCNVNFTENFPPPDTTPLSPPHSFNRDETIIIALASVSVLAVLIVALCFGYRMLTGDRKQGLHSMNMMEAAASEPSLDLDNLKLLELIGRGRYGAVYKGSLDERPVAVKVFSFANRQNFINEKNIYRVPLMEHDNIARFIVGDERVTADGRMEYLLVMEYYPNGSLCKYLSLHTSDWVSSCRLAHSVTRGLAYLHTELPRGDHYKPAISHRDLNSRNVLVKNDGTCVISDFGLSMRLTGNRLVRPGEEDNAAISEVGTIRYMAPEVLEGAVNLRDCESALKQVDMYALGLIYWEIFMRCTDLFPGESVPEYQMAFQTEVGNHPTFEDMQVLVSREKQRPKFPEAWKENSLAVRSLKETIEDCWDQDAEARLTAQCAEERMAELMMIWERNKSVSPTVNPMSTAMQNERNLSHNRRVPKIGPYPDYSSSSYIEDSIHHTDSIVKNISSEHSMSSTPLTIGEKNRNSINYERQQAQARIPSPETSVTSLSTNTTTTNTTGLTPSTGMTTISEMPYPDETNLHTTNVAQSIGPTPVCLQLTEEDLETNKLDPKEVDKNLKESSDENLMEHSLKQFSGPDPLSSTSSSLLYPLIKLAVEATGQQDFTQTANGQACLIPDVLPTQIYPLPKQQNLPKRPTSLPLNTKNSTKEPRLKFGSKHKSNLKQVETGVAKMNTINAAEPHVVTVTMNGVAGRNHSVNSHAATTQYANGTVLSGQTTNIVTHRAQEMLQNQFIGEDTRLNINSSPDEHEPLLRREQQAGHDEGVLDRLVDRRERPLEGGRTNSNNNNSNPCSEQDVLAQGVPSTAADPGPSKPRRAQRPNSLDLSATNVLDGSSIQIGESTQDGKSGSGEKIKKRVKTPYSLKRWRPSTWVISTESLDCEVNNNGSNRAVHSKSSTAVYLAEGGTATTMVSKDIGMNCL

Sequence of Macrophage-stimulating protein receptor (Homo sapiens) (Q04912 25-304 limits assumed): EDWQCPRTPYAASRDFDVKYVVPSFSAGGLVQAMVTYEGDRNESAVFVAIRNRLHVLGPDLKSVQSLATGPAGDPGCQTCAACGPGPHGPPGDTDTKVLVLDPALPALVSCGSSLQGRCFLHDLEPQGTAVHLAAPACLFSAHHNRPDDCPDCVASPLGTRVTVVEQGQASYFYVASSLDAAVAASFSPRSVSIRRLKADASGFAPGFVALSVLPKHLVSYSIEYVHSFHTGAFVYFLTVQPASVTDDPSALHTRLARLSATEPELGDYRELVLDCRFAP
Sequence of Macrophage-stimulating protein receptor (Homo sapiens) (Q04912 310-1400 limits assumed): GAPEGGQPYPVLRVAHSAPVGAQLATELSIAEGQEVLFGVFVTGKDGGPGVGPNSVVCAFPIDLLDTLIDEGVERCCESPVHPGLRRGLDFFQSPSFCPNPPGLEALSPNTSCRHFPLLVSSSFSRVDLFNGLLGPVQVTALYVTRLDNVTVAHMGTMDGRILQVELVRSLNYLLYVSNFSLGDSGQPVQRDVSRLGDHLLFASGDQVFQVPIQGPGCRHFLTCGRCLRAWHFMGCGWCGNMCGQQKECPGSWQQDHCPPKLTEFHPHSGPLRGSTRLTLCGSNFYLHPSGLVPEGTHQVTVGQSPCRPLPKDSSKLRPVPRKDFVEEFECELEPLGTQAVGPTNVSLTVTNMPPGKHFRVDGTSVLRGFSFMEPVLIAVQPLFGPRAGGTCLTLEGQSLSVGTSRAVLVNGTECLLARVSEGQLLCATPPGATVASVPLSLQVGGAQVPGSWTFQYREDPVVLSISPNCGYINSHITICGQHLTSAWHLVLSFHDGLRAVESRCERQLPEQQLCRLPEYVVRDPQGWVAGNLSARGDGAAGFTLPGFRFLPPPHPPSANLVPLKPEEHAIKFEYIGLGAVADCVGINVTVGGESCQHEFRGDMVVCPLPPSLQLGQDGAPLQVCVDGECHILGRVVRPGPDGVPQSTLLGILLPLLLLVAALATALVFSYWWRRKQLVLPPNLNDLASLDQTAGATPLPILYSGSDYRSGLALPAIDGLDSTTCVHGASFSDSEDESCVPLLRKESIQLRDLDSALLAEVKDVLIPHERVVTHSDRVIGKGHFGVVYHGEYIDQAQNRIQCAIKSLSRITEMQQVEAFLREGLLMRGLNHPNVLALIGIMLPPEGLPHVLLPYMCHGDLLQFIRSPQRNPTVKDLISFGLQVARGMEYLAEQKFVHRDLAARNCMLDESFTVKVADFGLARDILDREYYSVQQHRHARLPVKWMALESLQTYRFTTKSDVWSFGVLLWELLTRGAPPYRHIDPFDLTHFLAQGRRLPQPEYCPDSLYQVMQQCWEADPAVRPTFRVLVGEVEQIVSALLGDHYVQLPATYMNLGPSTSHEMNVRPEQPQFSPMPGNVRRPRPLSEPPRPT

CC[C@H](Nc1ncnc2[nH]cnc12)c1nc2cccc(F)c2c(=O)n1-c1ccccc1
Activity [1]: 108%
Activity [2]: 106%
Activity [3]: 93.6%
Activity [4]: 96.5%
Activity [5]: 98.9%
Activity [6]: 107%

CC(C)Oc1ccc(-c2nn([C@@H](C)c3oc4ccc(F)cc4c(=O)c3-c3cccc(F)c3)c3ncnc(N)c23)cc1F [UMBRALISIB]
Activity [1]: 104%
Activity [2]: 97.9%
Activity [3]: 105%
Activity [4]: 104%
Activity [5]: 96.8%
Activity [6]: 107%

C[C@H](Nc1ncnc2nc[nH]c12)c1cc2cccc(Cl)c2c(=O)n1-c1ccccc1
Activity [1]: 103%
Activity [2]: 103%
Activity [3]: 94.5%
Activity [4]: 105%
Activity [5]: 98.5%
Activity [6]: 103%
